Results reported in US20260216144A1, “TARGETING MB2 OF THE MYC ONCOGENE AND ITS INTERACTION WITH TRRAP IN CANCER” (priority 2019, published 2026).

Legend:
MYC:TRRAP interaction = MYC:TRRAP interaction (Homo sapiens, UniProt P01106+Q9Y4A5); assay: MYC:TRRAP in-cell luminescence complementation assay (NanoBiT; SmB-MYC 1-190 and TRRAP 2033-2283-LgB in HeLa cells); type: cell-based
Procedure: HeLa cells plated on Greiner 96-well TC-rated white plates with clear bottoms were used for the following measurements. Reverse transfections were carried out using LipoD293™ before cells were plated. A bluescript KS' plasmid (Addgene) was used as carrier DNA for transfections, and a pcDNA3.1 EGFP plasmid (ThermoFisher) was used as a fluorescence reporter. White light-reflecting film (USA Scientific) was used to cover the bottom of the plates for luminescence measurements. Black light-absorbing film was used to cover the top of the plates for fluorescence measurements. All measurements were taken on a SpectraMax i3 instrument (Molecular Devices).
Transfections were carried out with increasing DNA amounts (1-100 ng per well) of a CMV-driven LgB plasmid and SmB in excess or vice-versa. Background luminesce for the usable range and the amount of DNA needed for vast excess of LgB or SmB were noted. Next, complementation with vast excess either LgB or SmB was used to determine the expression of each of the indicated MYC and TRRAP constructs for a range of DNA amounts per well: 10-100 ng. An optimal ratio of DNA to equalize the expression of each MYC and TRRAP pair was calculated. Then, signal-to-noise ratios were calculated for the indicated MYC and TRRAP pairs, and the pair with the highest ratio was chosen. Finally, the chosen pair was used to determine the optimal DNA transfection mixture. It was determined to be 6.7 ng of a plasmid with a MYC construct, 60 ng of a plasmid with a TRRAP construct and 33.3 ng of the pcDNA 3.1 EGFP plasmid, for each well in a 96-well plate. Unless otherwise indicated, these were the ratios of DNA transfected for this type of assay.
HeLa cells were transfected as above using LipoD293™ with a mixture of SmB-MYC 1-190, TRRAP 2033-2283-LgB, and EGFP in CMV-driven plasmids at the same optimized ratio described above. Two days post-transfection, the media in each well was replaced with fresh media containing each compound from the NCI's sets at 25 μM. Cells were incubated for 2 h with each compound, and luminescence and fluorescence measurements were recorded for each well. Changes in luminescence were normalized to fluorescence. The following pre-plated compound sets were obtained from the NCI/DTP chemical repository and used for this screen:
These chemical sets were used to discover novel small-molecule inhibitors of the MYC:TRRAP complex. SmB-MYC 1-190, TRRAP 2033-2283-LgB, and EGFP were transfected into HeLa cells. Two days post-transfection, compounds were added to the media at 25 μM and cells were incubated for 2h. Luminescence and fluorescence were recorded for each well containing one of the compounds. Changes in luminescence measurements were normalized to fluorescence measurements.
Afterwards, only molecules that reduced luminescence levels to <50% RLU were considered. This set of 46 compounds were incubated at 10 μM with vector-expressing cells. Luminescence complementation was measured and repeated in triplicate measurements. In addition, HeLa cells expressing LgB and SmB alone were incubated with the same compounds to rule out potentially artificial results due to inhibition of luciferase or its complementation. Molecules that induces any significant reduction in luminescence (<0.6) during this control assay were not considered further. Of 2947 molecules, 17 were chosen for further testing and ordered from the NCI/DTP Open Chemical Repository. FIG. 16 describes these chosen compounds.
Using the luminescence assay above as a readout for the MYC:TRRAP interaction, we used a robotic liquid handler to evaluate 2987 additional compounds (25 μM). All primary hits were counter-screened for any activity against the luciferase enzyme itself and for any effects on the expression of the fusion proteins. We set a threshold of 50% inhibition to consider compounds further. Only 17 out of 2987 passed all these criteria (0.6%). […]

[1] = target: T1, endogenous MYC:TRRAP complex (Homo sapiens, UniProt P01106+Q9Y4A5); assay: co-IP of the endogenous MYC:TRRAP complex from HeLa cells incubated with compounds; type: cell-based; conditions: for inhibition of MYC:TRRAP complex formation: luminescence assay and co-IP assay, compared to DMSO vehicle control, FIG. 24A
T1 construct: immunoprecipitation experiments using endogenous full length MYC and TRRAP
Procedure: FIGS. 23A-23B show the results of co-IP assay experiments comparing the top 17 hits in immunoprecipitation experiments using endogenous full length MYC and TRRAP. In these experiments immunocomplexes were immunoprecipitated with anti-MYC beads in the presence of 25 μM of each of the 17 top compounds. Experiments were carried out in cells (compounds were added to the media of cells) (FIG. 23B) or in vitro (compounds were added directly to the purified complex on pre-washed beads) (FIG. 23A). Immunoprecipitation of TRRAP was normalized to the immunoprecipitation of MYC.
The indicated TRRAP constructs were cloned into a CMV-driven plasmid containing an N-terminal FLAG tag as previously described (23). Full-length wild-type (WT) MYC and MYC ΔMB2 (A129-145), and the indicated MYC constructs were cloned into the same CMV-driven plasmid but containing a Glu-Glu (PYO) tag instead. HEK293T cells were co-transfected with equal amounts of each plasmid using LipoD293™ In vitro DNA Transfection Reagent per protocol (SignaGen). Cells were plated subconfluently 16-20 hours prior to transfection. After 24 hours, cells were lysed in F-buffer (10 mM TRIS pH 7.5, 50 mM NaCl, 30 mM sodium pyrophosphate, […], 10% glycerol, 1% Triton-X, 50 mM NaF) supplemented with 1 mM PMSF, 10 μM Leupeptin, 10 μM Pepstatin-A, and 10 μg/mL Aprotinin for immunoprecipitations and co-immunoprecipitations. Immunoprecipitations were performed using anti-FLAG (Sigma Aldrich), anti-PYO (Covance), or anti-MYC (C33 Santa Cruz Biotechnology) agarose preconjugated beads. Co-immunoprecipitation was analyzed by western blots with the following antibodies: MYC (sc-764 Santa Cruz Biotechnology), TRRAP (A301-132A Bethel Laboratories), FLAG (F7425 Sigma Aldrich), and PYO (Covance).
Co-IP experiments of the endogenous MYC:TRRAP complex were carried out to validate the results from the MYC:TRRAP in-cell luminescence complementation screen performed. HeLa cells were again subjected to the effects of incubation with each of the 17 compounds from FIG. 16 for 2 h before analysis. FIG. 19, FIG. 20, and FIG. 21 present the effects of these compounds on the endogenous MYC:TRRAP and MYC:MAX complexes. Like before, all compounds except for 7 and 11 had no effect on the levels of MYC or TRRAP. […] Incubation with some of the compounds that scored positive by the in-cell luminescence complementation screen had the predicted effect on the endogenous MYC:TRRAP complex. This validates the preliminary compound screen and presents the completion of a major milestone in the effort to therapeutically target MYC in cancer.

[2] = Table 2, compounds with >80% similarity to compound 10 (NSC657456), 10 uM

Chain of MYC:TRRAP interaction (P01106 16-205): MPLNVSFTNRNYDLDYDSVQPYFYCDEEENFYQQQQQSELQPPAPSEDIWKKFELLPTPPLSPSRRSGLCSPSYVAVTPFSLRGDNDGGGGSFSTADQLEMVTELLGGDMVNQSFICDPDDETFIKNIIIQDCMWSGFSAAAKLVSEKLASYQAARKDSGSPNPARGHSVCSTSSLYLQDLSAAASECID
Chain of MYC:TRRAP interaction (Q9Y4A5 2051-2301): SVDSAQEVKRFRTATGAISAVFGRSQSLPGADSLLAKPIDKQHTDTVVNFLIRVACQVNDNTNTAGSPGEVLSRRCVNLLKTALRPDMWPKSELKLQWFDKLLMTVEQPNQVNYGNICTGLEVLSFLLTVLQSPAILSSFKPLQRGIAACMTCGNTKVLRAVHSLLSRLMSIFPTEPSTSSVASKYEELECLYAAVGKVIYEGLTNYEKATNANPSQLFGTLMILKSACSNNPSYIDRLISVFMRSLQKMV
T1 sequence (P01106 16-454): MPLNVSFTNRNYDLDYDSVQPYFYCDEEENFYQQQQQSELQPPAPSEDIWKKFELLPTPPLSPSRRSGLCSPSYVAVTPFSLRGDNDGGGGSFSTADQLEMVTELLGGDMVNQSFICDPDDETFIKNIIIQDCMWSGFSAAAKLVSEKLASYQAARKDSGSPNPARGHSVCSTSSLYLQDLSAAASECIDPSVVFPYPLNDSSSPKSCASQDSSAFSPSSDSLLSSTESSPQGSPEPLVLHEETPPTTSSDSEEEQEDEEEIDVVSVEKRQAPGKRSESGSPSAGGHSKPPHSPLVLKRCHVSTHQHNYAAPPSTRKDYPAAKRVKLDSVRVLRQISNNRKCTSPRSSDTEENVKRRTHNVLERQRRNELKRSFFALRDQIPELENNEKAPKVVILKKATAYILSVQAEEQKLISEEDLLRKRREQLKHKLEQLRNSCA
T1 sequence (Q9Y4A5 1-3830 isoform Q9Y4A5-2): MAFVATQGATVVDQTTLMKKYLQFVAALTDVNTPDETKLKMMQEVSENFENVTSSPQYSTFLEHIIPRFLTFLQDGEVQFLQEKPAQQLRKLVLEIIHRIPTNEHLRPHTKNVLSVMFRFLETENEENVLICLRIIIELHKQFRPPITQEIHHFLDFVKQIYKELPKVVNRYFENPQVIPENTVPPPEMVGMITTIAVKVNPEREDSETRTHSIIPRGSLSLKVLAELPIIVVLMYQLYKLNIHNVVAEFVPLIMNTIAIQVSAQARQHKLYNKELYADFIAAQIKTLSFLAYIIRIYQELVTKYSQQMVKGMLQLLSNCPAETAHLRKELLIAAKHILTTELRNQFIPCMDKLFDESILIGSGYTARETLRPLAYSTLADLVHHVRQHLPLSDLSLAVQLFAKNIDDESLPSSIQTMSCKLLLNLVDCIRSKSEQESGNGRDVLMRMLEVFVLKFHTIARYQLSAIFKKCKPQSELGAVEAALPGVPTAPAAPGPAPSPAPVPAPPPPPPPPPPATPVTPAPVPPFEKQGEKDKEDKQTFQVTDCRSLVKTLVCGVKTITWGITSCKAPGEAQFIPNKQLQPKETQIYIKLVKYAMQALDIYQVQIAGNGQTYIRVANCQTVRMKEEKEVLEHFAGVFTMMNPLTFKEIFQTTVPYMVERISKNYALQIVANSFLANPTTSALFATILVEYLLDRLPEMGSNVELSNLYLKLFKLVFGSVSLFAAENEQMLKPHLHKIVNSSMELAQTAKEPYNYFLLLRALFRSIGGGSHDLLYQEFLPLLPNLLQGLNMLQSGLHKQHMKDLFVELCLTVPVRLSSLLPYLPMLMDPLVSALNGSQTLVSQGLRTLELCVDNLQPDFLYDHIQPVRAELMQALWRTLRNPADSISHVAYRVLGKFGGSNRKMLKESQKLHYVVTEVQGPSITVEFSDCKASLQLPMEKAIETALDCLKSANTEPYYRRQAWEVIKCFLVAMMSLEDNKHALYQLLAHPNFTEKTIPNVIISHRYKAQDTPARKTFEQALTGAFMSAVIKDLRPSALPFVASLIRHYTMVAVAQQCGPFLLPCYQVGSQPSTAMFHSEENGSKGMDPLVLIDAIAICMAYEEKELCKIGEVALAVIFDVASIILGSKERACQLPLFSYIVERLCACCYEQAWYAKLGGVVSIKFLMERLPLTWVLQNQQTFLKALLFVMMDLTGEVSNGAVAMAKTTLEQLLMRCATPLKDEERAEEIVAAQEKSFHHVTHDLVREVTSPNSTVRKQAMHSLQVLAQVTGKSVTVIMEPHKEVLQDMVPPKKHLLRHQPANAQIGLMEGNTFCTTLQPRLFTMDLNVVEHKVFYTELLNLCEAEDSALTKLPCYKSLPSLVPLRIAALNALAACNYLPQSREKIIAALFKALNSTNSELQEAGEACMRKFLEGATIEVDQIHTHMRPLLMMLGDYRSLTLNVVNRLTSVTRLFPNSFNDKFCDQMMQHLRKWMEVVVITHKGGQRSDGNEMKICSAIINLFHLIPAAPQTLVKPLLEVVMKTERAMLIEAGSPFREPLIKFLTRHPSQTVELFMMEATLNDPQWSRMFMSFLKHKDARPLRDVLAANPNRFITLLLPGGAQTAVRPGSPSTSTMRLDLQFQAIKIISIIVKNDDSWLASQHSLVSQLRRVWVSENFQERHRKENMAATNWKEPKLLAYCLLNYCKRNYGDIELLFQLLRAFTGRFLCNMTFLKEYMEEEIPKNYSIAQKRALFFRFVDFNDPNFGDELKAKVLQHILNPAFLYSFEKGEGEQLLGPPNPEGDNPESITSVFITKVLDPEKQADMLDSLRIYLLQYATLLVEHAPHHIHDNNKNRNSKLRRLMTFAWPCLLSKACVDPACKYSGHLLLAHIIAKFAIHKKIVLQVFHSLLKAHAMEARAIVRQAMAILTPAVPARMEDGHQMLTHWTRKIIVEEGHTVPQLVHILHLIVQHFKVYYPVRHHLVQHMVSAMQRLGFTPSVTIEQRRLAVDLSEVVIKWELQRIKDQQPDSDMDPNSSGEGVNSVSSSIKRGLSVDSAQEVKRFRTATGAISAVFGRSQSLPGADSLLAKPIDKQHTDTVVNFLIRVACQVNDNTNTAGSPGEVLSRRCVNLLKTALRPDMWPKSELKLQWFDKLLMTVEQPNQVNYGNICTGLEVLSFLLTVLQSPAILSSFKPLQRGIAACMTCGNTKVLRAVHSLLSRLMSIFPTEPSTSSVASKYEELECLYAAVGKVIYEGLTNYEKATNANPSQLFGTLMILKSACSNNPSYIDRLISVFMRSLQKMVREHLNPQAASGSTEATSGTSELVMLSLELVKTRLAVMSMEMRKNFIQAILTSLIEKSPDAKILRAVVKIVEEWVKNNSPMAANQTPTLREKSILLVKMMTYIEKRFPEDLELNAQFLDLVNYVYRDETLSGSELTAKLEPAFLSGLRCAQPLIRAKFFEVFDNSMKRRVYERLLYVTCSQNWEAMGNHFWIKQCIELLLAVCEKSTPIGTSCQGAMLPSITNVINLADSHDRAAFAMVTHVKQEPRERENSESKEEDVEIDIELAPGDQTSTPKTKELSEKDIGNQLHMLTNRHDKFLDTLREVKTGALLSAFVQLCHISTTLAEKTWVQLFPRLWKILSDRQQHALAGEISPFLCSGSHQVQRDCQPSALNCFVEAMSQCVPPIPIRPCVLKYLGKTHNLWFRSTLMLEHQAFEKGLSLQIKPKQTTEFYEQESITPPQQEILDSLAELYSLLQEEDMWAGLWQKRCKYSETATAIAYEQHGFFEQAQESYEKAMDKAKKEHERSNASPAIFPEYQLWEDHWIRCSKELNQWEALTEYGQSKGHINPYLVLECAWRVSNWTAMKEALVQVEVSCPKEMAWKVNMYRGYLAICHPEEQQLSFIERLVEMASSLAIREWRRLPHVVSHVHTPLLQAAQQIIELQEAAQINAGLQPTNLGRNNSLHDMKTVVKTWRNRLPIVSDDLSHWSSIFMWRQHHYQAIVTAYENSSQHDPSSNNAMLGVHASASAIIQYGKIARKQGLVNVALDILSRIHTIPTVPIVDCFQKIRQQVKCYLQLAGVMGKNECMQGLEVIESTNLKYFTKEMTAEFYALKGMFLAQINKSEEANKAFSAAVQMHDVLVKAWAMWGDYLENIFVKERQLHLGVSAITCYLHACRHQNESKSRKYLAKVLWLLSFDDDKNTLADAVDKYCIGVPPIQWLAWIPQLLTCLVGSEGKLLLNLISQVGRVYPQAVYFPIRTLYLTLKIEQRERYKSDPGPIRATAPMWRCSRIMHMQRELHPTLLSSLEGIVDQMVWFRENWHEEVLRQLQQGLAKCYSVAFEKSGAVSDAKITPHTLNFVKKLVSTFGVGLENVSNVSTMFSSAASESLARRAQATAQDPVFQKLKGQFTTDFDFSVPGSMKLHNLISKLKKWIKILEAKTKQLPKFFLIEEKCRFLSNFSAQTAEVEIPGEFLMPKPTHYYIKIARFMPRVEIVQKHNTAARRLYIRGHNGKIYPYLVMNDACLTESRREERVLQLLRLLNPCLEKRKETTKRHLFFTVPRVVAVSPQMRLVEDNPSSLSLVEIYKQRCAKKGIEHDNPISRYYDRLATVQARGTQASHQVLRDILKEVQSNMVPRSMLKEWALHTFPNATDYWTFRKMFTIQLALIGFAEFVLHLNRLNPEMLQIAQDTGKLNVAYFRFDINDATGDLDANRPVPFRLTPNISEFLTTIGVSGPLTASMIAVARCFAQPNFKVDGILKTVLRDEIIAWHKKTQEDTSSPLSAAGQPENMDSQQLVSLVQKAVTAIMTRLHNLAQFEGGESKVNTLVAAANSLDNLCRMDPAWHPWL

% Inhibition 10 uM (MYC:TRRAP interaction; [2]) | Compound | also measured
88.1% | COc1cc(C=C2S/C(=N/Nc3nc(-c4ccc(Br)cc4)cs3)N=C2O)cc(OC)c1OC (stereo in doubt) [Compound 10N, (2E,5Z)-2-[[4-(4-bromophenyl)-1,3-thiazol-2-yl] hydrazinylidene]-5-[(3,4,5-trimethoxy-phenyl)methylidene]-1,3-thiazolidin-4-one] | inhibition of the endogenous MYC:TRRAP interaction ([1]; FIG. 24): do not inhibit the endogenous MYC:TRRAP interaction; inhibition of MYC:TRRAP complex formation [1]: 20%
73.56% | Oc1[nH]c2ccccc2c1/N=N/c1nc(-c2ccc(Br)cc2)cs1 [Compound 10, 3-[[4-(4-bromophenyl)-1,3-thiazol-2-yl]diazenyl]-1H-indol-2-ol] | % Inhibition 10 uM (MYC:TRRAP interaction; Table 1, 46 primary hits at 10 uM, HeLa cells, triplicate measurements): 58.98%; inhibition of MYC:TRRAP binding (MYC:TRRAP interaction; most consistent inhibition in multiple assays): ~ 50%; inhibitory activity on immunoprecipitation of TRRAP normalized to MYC ([1]; 25 μM, top 17 hits, in cells or in vitro, FIG. 23A-23B): greatest inhibitory activity; inhibition of MYC:TRRAP complex formation [1]: 70%
82.44% | N=C(S)/N=N/c1c(O)[nH]c2cccc(C(F)(F)F)c12 [Compound 1015, [2-hydroxy-4-(trifluoro-methyl)-1H-indol-3-yl]iminothiourea] | –
104.5% | O=C1CSC(/N=N/c2c(O)[nH]c3ccccc23)=N1 [Compound 1016, 2-[(2-hydroxy-1H-indol-3-yl)diazenyl]-1,3-thiazol-4-one] | –
77.04% | C=CC/N=C(S)/N=N/c1c(O)[nH]c2ccccc12 [Compound 1018] | –
82.34% | O=C(/N=N/c1c(O)[nH]c2ccccc12)C(F)(F)F [Compound 1019, 2,2,2-trifluoro-N-[(2-hydroxy-1H-indol-3-yl)imino] acetamide] | –
91.72% | Oc1[nH]c2ccccc2c1/N=N/C1=NCCN1 [Compound 1020, 3-(4,5-dihydro-1H-imidazol-2-yldiazenyl)-1H-indol-2-ol] | –
71.88% | Nn1c(S)nnc1/N=N/c1c(O)[nH]c2ccccc12 [Compound 1021, 4-amino-3-[(2-hydroxy-1H-indol-3-yl)diazenyl]-1H-1,2,4-triazole-5-thione] | –
54.58% | O=[N+]([O-])c1cccc(-c2csc(/N=N/c3c(O)[nH]c4ccccc34)n2)c1 [Compound 1022, 3-[[4-(3-nitrophenyl)-1,3-thiazol-2-yl]diazenyl]-1H-indol-2-ol] | –
47.93% | O=[N+]([O-])c1ccc(-c2csc(N=Nc3c(O)[nH]c4ccccc34)n2)cc1 [Compound 1023, 3-[[4-(4-nitrophenyl)-1,3-thiazol-2-yl]diazenyl]-1H-indol-2-ol] | –
53.24% | Oc1[nH]c2ccccc2c1/N=N/c1nc(-c2ccc(Cl)c(Cl)c2)cs1 [Compound 1025, 3-[[4-(3,4-dichlorophenyl)-1,3-thiazol-2-yl]diazenyl]-1H-indol-2-ol] | –
59.51% | CCOC(=O)Cc1csc(/N=N/c2c(O)[nH]c3ccccc23)n1 [Compound 1026, ethyl 2-[2-[(2-hydroxy-1H-indol-3-yl)diazenyl]-1,3-thiazol-4-yl] acetate] | –
50.66% | Cc1sc(/N=N/c2c(O)[nH]c3ccccc23)nc1-c1ccccc1 [Compound 1027, 3-[(5-methyl-4-phenyl-1,3-thiazol-2-yl)diazenyl]-1H-indol-2-ol] | –
97.46% | O=C(Cc1csc(/N=N/c2c(O)[nH]c3ccccc23)n1)Nc1ccccc1 [Compound 1028, 2-[2-[(2-hydroxy-1H-indol-3-yl)diazenyl]-1,3-thiazol-4-y]-N-phenylacetamide] | –
98.07% | Cc1ccccc1NC(=O)Cc1csc(/N=N/c2c(O)[nH]c3ccccc23)n1 [Compound 1029] | –
88.62% | CCCNC(=S)N=Nc1c(O)[nH]c2ccccc12 [Compound 1032, 1-[(2-hydroxy-1H-indol-3-yl)imino]-3-propylthiourea] | –
86.96% | Oc1[nH]c2ccccc2c1/N=N/C(=S)N1CCCC1 [Compound 1033, N-((2-hydroxy-1H-indol-3-yl)imino] pyrrolidine-1-carbothioamide] | –
111.9% | Cc1ccccc1/N=C(S)/N=N/c1c(O)[nH]c2ccccc12 [Compound 1034, 1-[(2-hydroxy-1H-indol-3-yl)imino]-3-(2-methylphenyl) thiourea] | –
82.12% | Cc1cccc(/N=C(S)/N=N/c2c(O)[nH]c3ccccc23)c1 [Compound 1035, 1-[(2-hydroxy-1H-indol-3-yl)imino]-3-(3-methylphenyl) thiourea] | –
86.98% | Cc1ccc(/N=C(S)/N=N/c2c(O)[nH]c3ccccc23)cc1 [Compound 1036] | –
85.49% | Oc1[nH]c2ccccc2c1/N=N/C1=NCCCCN1 [Compound 1037, 3-(4,5,6,7-tetrahydro-1H-1,3-diazepin-2-yldiazenyl)-1H-indol-2-ol; hydroiodide] | –
86.67% | O=C(Cc1ccccc1)/N=N/c1c(O)[nH]c2ccccc12 [Compound 1038, N-((2-hydroxy-1H-indol-3-yl)imino]-2-phenylacetamide] | –
59.84% | c1ccc2c(c1)=NOc1[nH]c3ccccc3c1N=2 [Compound 1039, 5H-indolo[2,3-c][2,1,5]ben-zoxadiazepine] | –

Compound | % Inhibition 10 uM (MYC:TRRAP interaction; [2]) | also measured
N#CC(=N)/C(C#N)=N/c1c(O)[nH]c2ccccc12 [Compound 1017, N′-(2-hydroxy-1H-indol-3-yl)ethane-diimidoyl dicyanide] | 89.13% | –
